# According to patent US10150760B2, “Compounds for use in preparing heterocyclic triazole agonists of the APJ receptor” (AMGEN INC., priority 2016, dated 2018):
# Biological target: human APJ receptor (Homo sapiens (Human), UniProt P35414)
# Assay: [35S]GTPγS binding assay on membranes from CHO cells stably expressing human APJ receptor
# Assay type: biochemical
# Settings: read-out: Activity hAPJ SPA EC50 IP
# Method: The human APJ receptor was cloned by polymerase chain reaction and the gene encoding the receptor was subcloned in pFLAG-CMV™-3 expression vector (Sigma, Saint Louis, Mo. USA) in-house at Amgen. A GTPγS binding assay was performed on membranes prepared from CHO cells stably expressing human APJ receptor. The optimum experimental conditions for the concentrations of GDP, MgCl2, and NaCl in the assay buffer were initially determined. The assay was performed in assay buffer [20 mM HEPES, pH 7.5, 5 mM MgCl2, and 0.1% (w/v) BSA with 200 mM NaCl, 3 μM GDP] and membranes expressing human APJ receptor/well along with WGA PS beads. The reaction was initiated by addition of 0.2 nM [^35S]GTPγS (Perkin Elmer Life and Analytical Sciences, Waltham USA) in the absence or presence of various ligands and incubated at RT for 90 min. Nonspecific binding was determined in the presence of 100 μM GTPγS and was always less than 0.2% of total binding. All the results presented are means of several independent experiments and analyzed by non-linear regression methods using commercially available program Prism (GraphPad, San Diego, Calif.) to obtain EC50 detailed in Table 38.
# Chain of human APJ receptor (P35414 whole entry): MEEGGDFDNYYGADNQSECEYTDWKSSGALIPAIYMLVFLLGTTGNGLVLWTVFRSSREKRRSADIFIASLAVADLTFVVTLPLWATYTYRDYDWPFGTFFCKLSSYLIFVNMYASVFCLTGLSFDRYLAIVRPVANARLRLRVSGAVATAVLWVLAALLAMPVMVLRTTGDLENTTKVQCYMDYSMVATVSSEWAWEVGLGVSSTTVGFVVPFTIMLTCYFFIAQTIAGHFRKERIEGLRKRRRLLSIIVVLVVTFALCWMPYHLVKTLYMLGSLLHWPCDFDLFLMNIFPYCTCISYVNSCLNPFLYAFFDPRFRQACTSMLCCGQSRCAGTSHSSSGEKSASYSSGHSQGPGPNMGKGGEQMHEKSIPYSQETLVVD
row,Structure (SMILES),EC50
1,"COc1ncnc(OC)c1-n1c(NS(=O)(=O)[C@@H](C)[C@H](C)c2ncc(Cl)cn2)nnc1[C@H]1CCCO1 (single isomer, unassigned) [Example 81.0, (2S,3R)-3-(5-chloropyrimidin-2-yl)-N-(4-(4,6-dimethoxypyrimidin-5-yl)-5-((S)-tetrahydrofuran-2-yl)-4H-1,2,4-triazol-3-yl)butane-2-sulfonamide or (2S,3R)-3-(5-chloropyrimidin-2-yl)-N-(4-(4,6-dimethoxypyrimidin-5-yl)-5-((R)-tetrahydrofuran-2-yl)-4H-1,2,4-triazol-3-yl)butane-2-sulfonamide]",82 nM
2,"COc1ncnc(OC)c1-n1c(NS(=O)(=O)[C@@H](C)[C@H](C)c2ncc(Cl)cn2)nnc1[C@H]1CCCO1 (single isomer, unassigned) [Example 82.0, (2S,3R)-3-(5-chloropyrimidin-2-yl)-N-(4-(4,6-dimethoxypyrimidin-5-yl)-5-((S)-tetrahydrofuran-2-yl)-4H-1,2,4-triazol-3-yl)butane-2-sulfonamide or (2S,3R)-3-(5-chloropyrimidin-2-yl)-N-(4-(4,6-dimethoxypyrimidin-5-yl)-5-((R)-tetrahydrofuran-2-yl)-4H-1,2,4-triazol-3-yl)butane-2-sulfonamide]",3 nM
3,"COc1cccc(OC)c1-n1c(NS(=O)(=O)[C@@H](C)[C@H](OC)c2ncc(Cl)cn2)nnc1[C@H]1CCCCO1 (single isomer, unassigned) [Example 83.0, (1R,2S)-1-(5-chloropyrimidin-2-yl)-N-(4-(2,6-dimethoxyphenyl)-5-((S)-tetrahydro-2H-pyran-2-yl)-4H-1,2,4-triazol-3-yl)-1-methoxypropane-2-sulfonamide or (1R,2S)-1-(5-chloropyrimidin-2-yl)-N-(4-(2,6-dimethoxyphenyl)-5-((R)-tetrahydro-2H-pyran-2-yl)-4H-1,2,4-triazol-3-yl)-1-methoxypropane-2-sulfonamide]",10 nM
4,"COc1cccc(OC)c1-n1c(NS(=O)(=O)[C@@H](C)[C@H](OC)c2ncc(Cl)cn2)nnc1[C@H]1CCCCO1 (single isomer, unassigned) [Example 84.0, (1R,2S)-1-(5-chloropyrimidin-2-yl)-N-(4-(2,6-dimethoxyphenyl)-5-((S)-tetrahydro-2H-pyran-2-yl)-4H-1,2,4-triazol-3-yl)-1-methoxypropane-2-sulfonamide or (1R,2S)-1-(5-chloropyrimidin-2-yl)-N-(4-(2,6-dimethoxyphenyl)-5-((R)-tetrahydro-2H-pyran-2-yl)-4H-1,2,4-triazol-3-yl)-1-methoxypropane-2-sulfonamide]",0.8 nM
5,"COc1cccc(OC)c1-n1c(NS(=O)(=O)[C@@H](C)[C@H](C)c2ncc(C)cn2)nnc1[C@H]1CCCCO1 (single isomer, unassigned) [Example 85.0, (2S,3R)-N-(4-(2,6-dimethoxyphenyl)-5-((S)-tetrahydro-2H-pyran-2-yl)-4H-1,2,4-triazol-3-yl)-3-(5-methylpyrimidin-2-yl)butane-2-sulfonamide or (2S,3R)-N-(4-(2,6-dimethoxyphenyl)-5-((R)-tetrahydro-2H-pyran-2-yl)-4H-1,2,4-triazol-3-yl)-3-(5-methylpyrimidin-2-yl)butane-2-sulfonamide]",9.6 nM
6,"COc1cccc(OC)c1-n1c(NS(=O)(=O)[C@@H](C)[C@H](C)c2ncc(C)cn2)nnc1[C@H]1CCCCO1 (single isomer, unassigned) [Example 86.0, (2S,3R)-N-(4-(2,6-dimethoxyphenyl)-5-((S)-tetrahydro-2H-pyran-2-yl)-4H-1,2,4-triazol-3-yl)-3-(5-methylpyrimidin-2-yl)butane-2-sulfonamide or (2S,3R)-N-(4-(2,6-dimethoxyphenyl)-5-((R)-tetrahydro-2H-pyran-2-yl)-4H-1,2,4-triazol-3-yl)-3-(5-methylpyrimidin-2-yl)butane-2-sulfonamide]",2.1 nM
7,"COc1cccc(OC)c1-n1c(NS(=O)(=O)[C@@H](C)[C@H](C)c2ncc(Cl)cn2)nnc1[C@H]1CCCCO1 (single isomer, unassigned) [Example 87.0, (2S,3R)-3-(5-chloropyrimidin-2-yl)-N-(4-(2,6-dimethoxyphenyl)-5-((S)-tetrahydro-2H-pyran-2-yl)-4H-1,2,4-triazol-3-yl)butane-2-sulfonamide or (2S,3R)-3-(5-chloropyrimidin-2-yl)-N-(4-(2,6-dimethoxyphenyl)-5-((S)-tetrahydro-2H-pyran-2-yl)-4H-1,2,4-triazol-3-yl)butane-2-sulfonamide]",2.4 nM
8,"COc1cccc(OC)c1-n1c(NS(=O)(=O)[C@@H](C)[C@H](C)c2ncc(Cl)cn2)nnc1[C@H]1CCCCO1 (single isomer, unassigned) [Example 88.0, (2S,3R)-3-(5-chloropyrimidin-2-yl)-N-(4-(2,6-dimethoxyphenyl)-5-((S)-tetrahydro-2H-pyran-2-yl)-4H-1,2,4-triazol-3-yl)butane-2-sulfonamide or (2S,3R)-3-(5-chloropyrimidin-2-yl)-N-(4-(2,6-dimethoxyphenyl)-5-((S)-tetrahydro-2H-pyran-2-yl)-4H-1,2,4-triazol-3-yl)butane-2-sulfonamide]",0.42 nM
9,"COc1cccc(OC)c1-n1c(NS(=O)(=O)[C@@H](C)[C@H](C)c2cnc(C)cn2)nnc1[C@H]1CCCO1 (single isomer, unassigned) [Example 89.0, (2S,3R)-N-(4-(2,6-dimethoxyphenyl)-5-((S)-tetrahydrofuran-2-yl)-4H-1,2,4-triazol-3-yl)-3-(5-methylpyrazin-2-yl)butane-2-sulfonamide or (2S,3R)-N-(4-(2,6-dimethoxyphenyl)-5-((R)-tetrahydrofuran-2-yl)-4H-1,2,4-triazol-3-yl)-3-(5-methylpyrazin-2-yl)butane-2-sulfonamide]",23 nM
10,"COc1cccc(OC)c1-n1c(NS(=O)(=O)[C@@H](C)[C@H](C)c2cnc(C)cn2)nnc1[C@H]1CCCO1 (single isomer, unassigned) [Example 90.0, (2S,3R)-N-(4-(2,6-dimethoxyphenyl)-5-((S)-tetrahydrofuran-2-yl)-4H-1,2,4-triazol-3-yl)-3-(5-methylpyrazin-2-yl)butane-2-sulfonamide or (2S,3R)-N-(4-(2,6-dimethoxyphenyl)-5-((R)-tetrahydrofuran-2-yl)-4H-1,2,4-triazol-3-yl)-3-(5-methylpyrazin-2-yl)butane-2-sulfonamide]",370 nM
11,"COc1ncnc(OC)c1-n1c(NS(=O)(=O)[C@@H](C)[C@H](OC)c2ncc(Cl)cn2)nnc1C1CCCOC1 (single isomer, unassigned) [Example 91.0, (1R,2S)-1-(5-chloropyrimidin-2-yl)-N-(4-(4,6-dimethoxypyrimidin-5-yl)-5-((S)-tetrahydro-2H-pyran-3-yl)-4H-1,2,4-triazol-3-yl)-1-methoxypropane-2-sulfonamide or (1R,2S)-1-(5-chloropyrimidin-2-yl)-N-(4-(4,6-dimethoxypyrimidin-5-yl)-5-((R)-tetrahydro-2H-pyran-3-yl)-4H-1,2,4-triazol-3-yl)-1-methoxypropane-2-sulfonamide]",290 nM
12,"COc1ncnc(OC)c1-n1c(NS(=O)(=O)[C@@H](C)[C@H](OC)c2ncc(Cl)cn2)nnc1[C@H]1CCCOC1 (single isomer, unassigned) [Example 92.0, (1R,2S)-1-(5-chloropyrimidin-2-yl)-N-(4-(4,6-dimethoxypyrimidin-5-yl)-5-((S)-tetrahydro-2H-pyran-3-yl)-4H-1,2,4-triazol-3-yl)-1-methoxypropane-2-sulfonamide or (1R,2S)-1-(5-chloropyrimidin-2-yl)-N-(4-(4,6-dimethoxypyrimidin-5-yl)-5-((R)-tetrahydro-2H-pyran-3-yl)-4H-1,2,4-triazol-3-yl)-1-methoxypropane-2-sulfonamide]",42 nM
13,"COc1ncnc(OC)c1-n1c(NS(=O)(=O)[C@@H](C)[C@H](C)c2ncc(Cl)cn2)nnc1[C@H]1CCOC1 (single isomer, unassigned) [Example 93.0, (2S,3R)-3-(5-chloropyrimidin-2-yl)-N-(4-(4,6-dimethoxypyrimidin-5-yl)-5-((R)-tetrahydrofuran-3-yl)-4H-1,2,4-triazol-3-yl)butane-2-sulfonamide or (2S,3R)-3-(5-chloropyrimidin-2-yl)-N-(4-(4,6-dimethoxypyrimidin-5-yl)-5-((S)-tetrahydrofuran-3-yl)-4H-1,2,4-triazol-3-yl)butane-2-sulfonamide]",170 nM
14,"COc1ncnc(OC)c1-n1c(NS(=O)(=O)[C@@H](C)[C@H](C)c2ncc(Cl)cn2)nnc1[C@H]1CCOC1 (single isomer, unassigned) [Example 94.0, (2S,3R)-3-(5-chloropyrimidin-2-yl)-N-(4-(4,6-dimethoxypyrimidin-5-yl)-5-((R)-tetrahydrofuran-3-yl)-4H-1,2,4-triazol-3-yl)butane-2-sulfonamide or (2S,3R)-3-(5-chloropyrimidin-2-yl)-N-(4-(4,6-dimethoxypyrimidin-5-yl)-5-((S)-tetrahydrofuran-3-yl)-4H-1,2,4-triazol-3-yl)butane-2-sulfonamide]",190 nM
